Values after ≈ are worked out from the molar mass of the structure shown.
Tests used:
[1] = biological target: T1, aurora kinase B (Homo sapiens, UniProt Q96GD4); assay: Aurora kinase B inhibition in vitro (Invitrogen aurora kinase screening kit PV3174); format: biochemical
T1 construct: purchased Invitrogen PV3174

[2] = test system: Jurkat E6-1 human T-cell lymphoma; assay: Tumor cell IC50, CCK-8 kit, Jurkat E6-1; format: cell-based; conditions: E6-1 cells
From the text: (§1) The inhibitory activities of the compounds on tumor cells (IC50) in vitro
(§2) The IC50 (IC50, unit: μg/ml) values of the compounds on Hut78 T-Lymphocytic Leukemia cells, Jurkat E6-1 human T-cell lymphoma, PANC-1 human pancreatic cancer cells, A549 human lung cancer cells, K562 human chronicity marrow leukemic cells, Hep3B2. 1-7 human hepatoma carcinoma cells, MDA-MB-435s human breast carcinoma cells, Colo320 human rectal cancer cells, PC-3 human carcinoma of prostate, and HepG2 human hepatoma carcinoma cells were determined using a CCK-8 kit. Erlotinib hydrochloride was used as the positive control drug.

[3] = test system: Hut78 T-Lymphocytic Leukemia cells; assay: Tumor cell IC50, CCK-8 kit, Hut78; format: cell-based; conditions: Homo sapiens, Hut-78 cells
From the text: as §1, §2

[4] = test system: Colo320 human rectal cancer cells; assay: Tumor cell IC50, CCK-8 kit, Colo320; format: cell-based; conditions: COLO 320
From the text: as §1, §2

[5] = test system: K562 human chronicity marrow leukemic cells; assay: Tumor cell IC50, CCK-8 kit, K562; format: cell-based
From the text: as §1, §2

[6] = test system: MDA-MB-435s human breast carcinoma cells; assay: Tumor cell IC50, CCK-8 kit, MDA-MB-435s; format: cell-based; conditions: 435s cells
From the text: as §1, §2

[7] = test system: Hep3B2. 1-7 human hepatoma carcinoma cells; assay: Tumor cell IC50, CCK-8 kit, Hep3B; format: cell-based
From the text: as §1, §2

[8] = test system: A549 human lung cancer cells; assay: Tumor cell IC50, CCK-8 kit, A549; format: cell-based
From the text: as §1, §2

[9] = test system: PANC-1 human pancreatic cancer cells; assay: Tumor cell IC50, CCK-8 kit, PANC-1; format: cell-based; conditions: PANC-1 cells
From the text: as §1, §2

[10] = test system: PC-3 human carcinoma of prostate; assay: Tumor cell IC50, CCK-8 kit, PC-3; format: cell-based; conditions: PC-3 cells
From the text: as §1, §2

[11] = Acute Toxicity Study; conditions: in vivo; preliminary screening, Bliss statistical method
Procedure: The acute toxicity experiments were carried out according to the methods disclosed in the book of Modern Pharmacological Methods, edited chiefly by Zhang Jun-Tian.

[12] = test system: K562 human chronicity marrow leukemic cells; assay: Tumor cell inhibition ratio, CCK-8 kit, K562; conditions: K562, read-out: Antiproliferative effect (inhibition ratio) K562
From the text: (§3) The inhibitory activities of the compounds on tumor cells in vitro

[13] = test system: A549 human lung cancer cells; assay: Tumor cell inhibition ratio, CCK-8 kit, A549; conditions: A549, read-out: Antiproliferative effect (inhibition ratio) A549
From the text: as §3

[14] = test system: PC-3 human carcinoma of prostate; assay: Tumor cell inhibition ratio, CCK-8 kit, PC-3; conditions: read-out: Antiproliferative effect (inhibition ratio) PC-3
From the text: as §3

[15] = test system: Hut78 T-Lymphocytic Leukemia cells; assay: Tumor cell inhibition ratio, CCK-8 kit, Hut78; conditions: Homo sapiens, HuT78, read-out: Antiproliferative effect (inhibition ratio) Hut-78
From the text: as §3

[16] = test system: Hep3B2.1-7 human hepatoma carcinoma cells; assay: Tumor cell inhibition ratio, CCK-8 kit, Hep3B; conditions: read-out: Antiproliferative effect (inhibition ratio) Hep3B
From the text: as §3

[17] = test system: PANC-1 human pancreatic cancer cells; assay: Tumor cell inhibition ratio, CCK-8 kit, PANC-1; conditions: PANC-1, read-out: Antiproliferative effect (inhibition ratio) PANC-1
From the text: as §3

[18] = test system: Colo320 human rectal cancer cells; assay: Tumor cell inhibition ratio, CCK-8 kit, Colo320; conditions: COLO 320, read-out: Antiproliferative effect (inhibition ratio) Colo320
From the text: as §3

[19] = test system: Jurkat E6-1 human T-cell lymphoma; assay: Tumor cell inhibition ratio, CCK-8 kit, Jurkat E6-1; conditions: Jurkat E6.1, read-out: Antiproliferative effect (inhibition ratio) E6-1
From the text: as §3

[20] = test system: MDA-MB-435s human breast carcinoma cells; assay: Tumor cell inhibition ratio, CCK-8 kit, MDA-MB-435s; conditions: read-out: Antiproliferative effect (inhibition ratio) 435s
From the text: as §3

[21] = biological target: EGFR tyrosine kinase (Homo sapiens, UniProt P00533); assay: EGFR tyrosine kinase inhibition in vitro (Invitrogen EGFR inhibitor screening kit PV3193)
EGFR tyrosine kinase, sequence (P00533 25-1210): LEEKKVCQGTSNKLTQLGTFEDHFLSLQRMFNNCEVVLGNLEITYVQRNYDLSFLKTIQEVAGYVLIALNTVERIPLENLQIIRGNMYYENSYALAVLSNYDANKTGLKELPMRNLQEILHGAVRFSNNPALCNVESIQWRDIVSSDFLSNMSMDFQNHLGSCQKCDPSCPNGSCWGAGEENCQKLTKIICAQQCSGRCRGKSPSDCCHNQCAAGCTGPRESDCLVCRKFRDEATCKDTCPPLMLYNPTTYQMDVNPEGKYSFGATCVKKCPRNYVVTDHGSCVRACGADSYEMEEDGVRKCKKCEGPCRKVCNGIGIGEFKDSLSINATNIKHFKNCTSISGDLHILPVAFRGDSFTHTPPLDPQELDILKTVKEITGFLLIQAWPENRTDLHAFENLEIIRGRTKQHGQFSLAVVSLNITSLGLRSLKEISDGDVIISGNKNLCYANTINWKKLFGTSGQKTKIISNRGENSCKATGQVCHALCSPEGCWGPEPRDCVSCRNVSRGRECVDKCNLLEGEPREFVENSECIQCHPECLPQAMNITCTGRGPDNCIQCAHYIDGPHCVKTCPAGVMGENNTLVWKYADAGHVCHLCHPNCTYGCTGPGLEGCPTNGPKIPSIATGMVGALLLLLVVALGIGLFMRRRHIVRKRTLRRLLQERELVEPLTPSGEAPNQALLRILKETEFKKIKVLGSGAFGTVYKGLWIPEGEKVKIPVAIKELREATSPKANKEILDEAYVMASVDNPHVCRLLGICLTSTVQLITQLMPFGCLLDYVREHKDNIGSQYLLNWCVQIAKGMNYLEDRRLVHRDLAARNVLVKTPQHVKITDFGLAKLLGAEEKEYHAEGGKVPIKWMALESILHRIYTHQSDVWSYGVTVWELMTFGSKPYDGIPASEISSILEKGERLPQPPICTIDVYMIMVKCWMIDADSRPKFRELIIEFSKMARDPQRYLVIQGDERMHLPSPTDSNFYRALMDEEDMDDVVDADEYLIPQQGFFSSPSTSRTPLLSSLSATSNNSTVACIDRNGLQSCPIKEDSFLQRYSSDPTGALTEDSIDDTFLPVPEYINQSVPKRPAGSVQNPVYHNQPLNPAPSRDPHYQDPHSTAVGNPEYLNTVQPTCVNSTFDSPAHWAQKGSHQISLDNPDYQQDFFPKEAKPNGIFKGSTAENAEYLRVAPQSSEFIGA
From the text: The inhibitory activities of EGFR tyrosine kinase in vitro
Erlotinib hydrochloride was used as a positive control drug.

T1 sequence (Q96GD4 whole entry): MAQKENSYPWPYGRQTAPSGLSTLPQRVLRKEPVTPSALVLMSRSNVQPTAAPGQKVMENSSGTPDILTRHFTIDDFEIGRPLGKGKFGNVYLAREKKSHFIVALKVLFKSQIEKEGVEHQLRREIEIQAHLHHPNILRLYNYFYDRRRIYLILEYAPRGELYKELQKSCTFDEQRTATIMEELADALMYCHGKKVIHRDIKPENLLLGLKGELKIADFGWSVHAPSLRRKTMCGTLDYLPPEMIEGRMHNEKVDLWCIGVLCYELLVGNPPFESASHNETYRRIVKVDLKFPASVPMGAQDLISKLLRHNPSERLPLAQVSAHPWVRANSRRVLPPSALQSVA

SMILES	The inhibition ratio of the compound on Aurora B(%) ([1]; 40 μM)	The inhibition ratio of the compound on Aurora B(%) ([1]; 200 μM)	IC50 [2] [µg/mL]	IC50 [3] [µg/mL]	IC50 [4] [µg/mL]	IC50 [5] [µg/mL]	IC50 [6] [µg/mL]	IC50 [7] [µg/mL]	IC50 [8] [µg/mL]	IC50 [9] [µg/mL]	IC50 [10] [µg/mL]	LD50 [11] [mg/kg]	inhibition at 10 µM [12] [%]	inhibition at 100 µM [12] [%]	inhibition at 10 µM [13] [%]	inhibition at 100 µM [13] [%]	inhibition at 10 µM [14] [%]	inhibition at 100 µM [14] [%]	inhibition at 10 µM [15] [%]	inhibition at 100 µM [15] [%]	further results
COCCOc1cc2c(cc1OCCOC)C1=Nc3cc(Cl)ccc3CN1C=N2 [Compound V-15, 11-chloro-2,3-bis(2-methoxyethoxy)-8H-quinazolino[4,3-b]quinazoline]	58.7	92.5	5.72 (≈ 13.8 µM)	14.3 (≈ 34.5 µM)	55.6 (≈ 134 µM)	1.5 (≈ 3.61 µM)	21 (≈ 50.5 µM)	6.91 (≈ 16.6 µM)	1.01 (≈ 2.43 µM)	8.32 (≈ 20 µM)	24.6 (≈ 59.2 µM)	2970	45.2	91.5	75.6	90.8	42.4	81.3	61	93.2	inhibition at 10 µM [16]: 52.4%; inhibition at 100 µM [16]: 97.4%; inhibition at 10 µM [17]: 61.8%; inhibition at 100 µM [17]: 94.1%; inhibition at 10 µM [18]: 58.3%; inhibition at 100 µM [18]: 96.5%; inhibition at 10 µM [19]: 69.5%; inhibition at 100 µM [19]: 85.8%; inhibition at 10 µM [20]: 72.6%; inhibition at 100 µM [20]: 92%; The inhibition ratio of the compound on EGFR(%) ([21]; 40 μM): 60.7%; The inhibition ratio of the compound on EGFR(%) ([21]; 200 μM): 94.0%
COCCOc1cc2c(cc1OCCOC)C1=Nc3cccc(Br)c3CN1C=N2.Cl [Compound V-2, 9-bromo-2,3-bis(2-methoxyethoxy)-8H-quinazolino[4,3-b]quinazoline hydrochloride hemihydrate]	53.2	95.8	15.3	61.1	32.3	34	0.42	9.83	0.67	0.11	4.78	2050	65.4	91.1	68.6	90.7	72.2	92.7	28.9	73.8	inhibition at 10 µM [16]: 53.5%; inhibition at 100 µM [16]: 90%; inhibition at 10 µM [17]: 59.7%; inhibition at 100 µM [17]: 95.9%; inhibition at 10 µM [18]: 57%; inhibition at 100 µM [18]: 89.6%; inhibition at 10 µM [19]: 56.2%; inhibition at 100 µM [19]: 83.1%; inhibition at 10 µM [20]: 59.8%; inhibition at 100 µM [20]: 82.6%; The inhibition ratio of the compound on EGFR(%) ([21]; 40 μM): 62.9%; The inhibition ratio of the compound on EGFR(%) ([21]; 200 μM): 97.9%
